Four compounds from ChEMBL document CHEMBL5244240, “MmpL3 inhibitors as antituberculosis drugs” (Eur J Med Chem, 2020) can be followed below.

For test [1], the system named is Mycobacterium tuberculosis. Put plainly: Antitubercular activity against multidrug resistant Mycobacterium tuberculosis. Format: functional.
Test [2] concerns Mycobacterium tuberculosis. Nature of the test: Antitubercular activity against low oxygen adapted Mycobacterium tuberculosis H37Rv. In kind it is functional.

≈ marks a conversion by molar mass, not a printed value.

`CC1(C)CCC(NC(=O)c2cc3c(F)cc(F)cc3[nH]2)CC1` came in with an MIC in test [1] of less than 0.04 µM.
Consider `Cc1c(CN2CCOCC2)cc(-c2ccc(C(C)C)cc2)n1-c1ccc(F)cc1`, for which inhibition of growth in test [2] (MIC) required 28.7 µM (≈ 11.3 µg/mL). In other words, the double-digit micromolar range.
`CC1(C)CCC(NC(=O)c2cc3c(Cl)cc(Cl)cc3[nH]2)CC1`: the MIC in test [1] is less than 0.04 µM.
For the compound `COc1ccc(-c2cc(CN3CCSCC3)c(C)n2-c2ccc(F)cc2)cc1`, the MIC in test [2] amounted to 10.1 µM (≈ 4 µg/mL).

A word on the MIC: it is the lowest concentration that inhibits growth of the organism. A high value points to a less susceptible organism.
